From patent publication US12583870B2, “Azaheteroaryl compound and application thereof” (SHANGHAI BLUERAY BIOPHARMA CO., LTD., priority 2019, dated 2026)

Tests used:
[1] = tested on: trimethylation level of histone H3K27 in G401 cells; experiment: ELISA (H3K27 trimethylation) analysis in G401 cells; assay type: cell-based; details: Homo sapiens, G-401, 72 hours, H3K27me3 standardized to H3
Method: 3-fold series dilution with DMSO was carried out on the representative compounds of the present disclosure; and 10 concentration gradients were detected for each compound, with the highest detection concentration of 10 μM. The compounds were diluted 200-fold into the G401 cells cultured in a 96-well plate (DMSO at a final concentration of 0.5%). After the cells, administered with the compound, were cultured for 72 hours, the trimethylation level of the histone H3K27 was detected using the ELISA method.
Extraction of the histone: in a 96-well plate, the compound-treated cells were washed three times with 1×PBS (10×PBS buffer (80 g NaCl (Sigma, product number S3014), 2 g KCl (Sigma, product number 60128), 14.4 g Na2HPO4 (Sigma, product number S5136), and 2.4 g KH2PO4 (Sigma, product number P9791) in 1 L of water, adjusting the pH to 7.4)). 100 μL of 0.4 N HCl was added into each well. The plate was placed at 4° C. and gently agitated for 2 hours to lyse the cells. The cell lysate was then neutralized with 80 μL of neutralization buffer (0.5 M disodium hydrogen phosphate, pH 12.5, 2.5 mM DTT; 1% cocktail (Sigma, product number P8340)) (the cell lysate and the neutralization buffer were thoroughly mixed to uniformity).
ELISA detection method: the cell lysate was transferred in parallel to two 384-well detection plates (PerkinElmer, OptiPlate-384HB, product number 6007290), wherein one of the plates was used to detect the H3K27 trimethylation level and the other plate was used to determine the level of H3. PBS was used to adjust the final volume to 50 μL/well. The plates were coated at 4° C. overnight. On the following day, the solution inside the wells was discarded and the plates were washed 5 times with TBST buffer (1×TBS (10×TBS: 24.2 g Tris (Sigma, product number T6066), 80 g NaCl (Sigma, product number S3014) in 1 L of water, adjusting the pH with HCl to 7.6), 0.1% Tween-20) and dried on an absorbent paper by inversion. 70 μL of blocking buffer (TBST, 5% BSA) was added into the coated reaction wells and the plates were incubated at room temperature for 1 hour. The blocking buffer was discarded and primary antibodies were added (30 μL/well). The desired primary antibodies were all diluted with a blocking buffer and the dilution factor was as follows: anti-H3K27me3 antibody (Cell Signaling Technology, product number 9733), 1:2000 dilution; anti-H3 antibody (Cell Signaling Technology, product number 4499), 1:10000 dilution. After the primary antibodies were added, the plates were placed at room temperature and incubated for 1 hour. After the plates were washed with TBST 5 times, the plates were dried by inversion. A secondary antibody (30 μL/well) was added to each of the reaction wells and the plates were incubated at room temperature for 1 hour. The secondary antibody (anti-rabbit antibody (Jackson ImmunoResearch, product number 111-035-003)) was diluted 2000-fold with a blocking buffer before use. After 1 hour, the plates were washed with TBST and dried by inversion. 30 μL of ECL substrate (Pierce, product number 34080) was added into each well and centrifuged at 2000 rpm for 30 seconds. The signal of each sample was detected using SpectraMax (Molecular Devices). Data processing: H3K27 methylation readings were first standardlized using H3 signals and 0.5% DMSO-treated samples was used as the control to calculate the inhibition percentage of the compounds. Data were fit to obtain Dose-Response curves using the GraphPad prism 5 program and the IC50 values of the test compounds were obtained.

KARPAS-422 cells = experiment: Cell proliferation analysis, KARPAS-422, 13 days, CellTiter-Glo; assay type: cell-based; details: Homo sapiens, 312 h
Method: Human B-cell non-Hodgkin lymphoma cells, KARPAS-422 S, were cultured in a culture flask using standard cell culture conditions. The medium contained 15% fetal bovine serum (FBS, Invitrogen, product number 10099-141) and 1% penicillin/streptomycin solution (P/S) RPMI-1640 (Invitrogen, product number 11875), and the culture flask was placed and cultured in a sterile incubator at the temperature of 37° C. and […] with a relative humidity of […] To detect the effect of PRC2 inhibitors on cell proliferation, cells in exponential growth phase were taken and seeded into a 96-well plate (Corning, product number 3904) at a density of 1×10^4 cells/well, and 100 μL of the medium was added into each well. Subsequently, the compounds at different concentrations disclosed in the present disclosure were added into the wells where cells had already been seeded (9 concentration gradients were provided for each compound, with the highest detection concentration at 10 μM, 3-fold gradient dilution) and two replicates in parallel were provided for each treatment concentration. DMSO was at a final concentration of 0.5%. Afterwards, viable cell numbers were determined using Vi-CELL (Beckman Coulter) every 3-4 days. Cells counted were seeded into a new 96-well plate at the same density (1×10^4 cells/well) each time. The wells were supplemented with a fresh medium to 100 μL and at the same time, compounds at different concentrations were added. The cells were cultured to day 13. 100 μL of CellTiter-Glo (CellTiter-GloCellTiter-GloCellTiter-GloCTG) (Promega, product number G7573) was added into each well. The plate was placed in the dark at room temperature for 10-20 minutes and the luminescence signal was read using SpectraMax i3× (Molecular Devices).

Compound | IC50 [1] [µM] | IC50 (KARPAS-422 cells) [µM]
CN(C)CCN(C)Cc1ccc(-c2cnc(NCc3c(F)ccc4c3CCO4)n3cnnc23)c2ncnn12 [N1-((8-(5-(((5-fluoro-2,3-dihydrobenzofuran-4-yl)methyl)amino)-[1,2,4]triazolo[4,3-c]pyrimidin-8-yl)-[1,2,4]triazolo[1,5-a]pyridin-5-yl)methyl)-N1,N2,N2-trimethylethane-1,2-diamine] | 0.0112 | 0.0035
Cc1ccc(-c2cnc(NCc3c(F)ccc4c3CCO4)n3cnnc23)c2ncc(C(=O)N(C)C)n12 [8-(5-(((5-fluoro-2,3-dihydrobenzofuran-4-yl)methyl)amino)-[1,2,4]triazolo[4,3-c]pyrimidin-8-yl)-N,N,5-trimethylimidazo[1,2-a]pyridine-3-carboxamide] | 0.0014 | 0.0012
Cc1ccc(-c2cnc(NCc3c(F)ccc4c3CCO4)n3cnnc23)c2nc(C(=O)N(C)C)cn12 [8-(5-(((5-fluoro-2,3-dihydrobenzofuran-4-yl)methyl)amino)-[1,2,4]triazolo[4,3-c]pyrimidin-8-yl)-N,N,5-trimethylimidazo[1,2-a]pyridine-2-carboxamide] | 0.0023 | 0.0028
Fc1ccc2c(c1CNc1ncc(-c3cccn4ncnc34)c3nncn13)CCO2 [8-([1,2,4]triazolo[1,5-a]pyridin-8-yl)-N-((5-fluoro-2,3-dihydrobenzofuran-4-yl)methyl)-[1,2,4]triazolo[4,3-c]pyrimidin-5-amine] | 0.0009 | 0.0014
CN1CCN(Cc2ccc(-c3cnc(NCc4c(F)ccc5c4CCO5)n4cnnc34)c3ncnn23)CC1 [N-((5-fluoro-2,3-dihydrobenzofuran-4-yl)methyl)-8-(5-((4-methylpiperazin-1-yl)methyl)-[1,2,4]triazolo[1,5-a]pyridin-8-yl)-[1,2,4]triazolo[4,3-c]pyrimidin-5-amine] | 0.0011 | 0.0007
Cc1ccc(-c2cnc(NCc3c(F)ccc4c3CCO4)n3cnnc23)c2ncc(C(=O)N3CCOCC3)n12 [(8-(5-(((5-fluoro-2,3-dihydrobenzofuran-4-yl)methyl)amino)-[1,2,4]triazolo[4,3-c]pyrimidin-8-yl)-5-methylimidazo[1,2-a]pyridin-3-yl)(morpholino)methanone] | 0.0024 | 0.0011
Fc1ccc2c(c1CNc1ncc(-c3ccc(C(F)(F)F)n4ccnc34)c3nncn13)CCO2 [N-((5-fluoro-2,3-dihydrobenzofuran-4-yl)methyl)-8-(5-(trifluoromethyl)imidazo[1,2-a]pyridin-8-yl)-[1,2,4]triazolo[4,3-c]pyrimidin-5-amine] | 0.0106 | 0.007
Cc1ccc(-c2cnc(NCc3c(F)ccc4c3CCO4)n3cnnc23)c2ncc(CC#N)n12 [2-(8-(5-(((5-fluoro-2,3-dihydrobenzofuran-4-yl)methyl)amino)-[1,2,4]triazolo[4,3-c]pyrimidin-8-yl)-5-methylimidazo[1,2-a]pyridin-3-yl)acetonitrile] | 0.007 | 0.0014
COc1ccc(-c2cnc(NCc3c(F)ccc4c3CCO4)n3cnnc23)c2ncnn12 [N-((5-fluoro-2,3-dihydrobenzofuran-4-yl)methyl)-8-(5-methoxy-[1,2,4]triazolo[1,5-a]pyridin-8-yl)-[1,2,4]triazolo[4,3-c]pyrimidin-5-amine] | 0.0032 | 0.0011
CN(C)C(=O)c1ccc(-c2cnc(NCc3c(F)ccc4c3CCO4)n3cnnc23)c2nccn12 [8-(5-(((5-fluoro-2,3-dihydrobenzofuran-4-yl)methyl)amino)-[1,2,4]triazolo[4,3-c]pyrimidin-8-yl)-N,N-dimethylimidazo[1,2-a]pyridine-5-carboxamide] | 0.0007 | 0.0013
Cc1ccc(-c2cnc(NCc3c(F)ccc4c3[C@H]3C[C@H]3O4)n3cnnc23)c2nccn12 [N-(((1aR,6bR)-5-fluoro-1a,6b-dihydro-1H-cyclopropa[b]benzofuran-6-yl)methyl)-8-(5-methylimidazo[1,2-a]pyridin-8-yl)-[1,2,4]triazolo[4,3-c]pyrimidin-5-amine] | 0.0012 | 0.0009
COc1cc(-c2cnc(NCc3c(F)ccc4c3CCO4)n3cnnc23)c2ncc(C#N)n2c1 [8-(5-(((5-fluoro-2,3-dihydrobenzofuran-4-yl)methyl)amino)-[1,2,4]triazolo[4,3-c]pyrimidin-8-yl)-6-methoxyimidazo[1,2-a]pyridine-3-carbonitrile] | 0.0042 | 0.0045
Fc1ccc2c(c1CNc1ncc(-c3cccc4nsnc34)c3nncn13)CCO2 [8-(benzo[c][1,2,5]thiadiazol-4-yl)-N-((5-fluoro-2,3-dihydrobenzofuran-4-yl)methyl)-[1,2,4]triazolo[4,3-c]pyrimidin-5-amine] | 0.0023 | 0.014
Cc1ccc(-c2cnc(NCc3c(F)ccc4c3CCO4)n3cnnc23)c2ncc(C(N)=O)n12 [8-(5-(((5-fluoro-2,3-dihydrobenzofuran-4-yl)methyl)amino)-[1,2,4]triazolo[4,3-c]pyrimidin-8-yl)-5-methylimidazo[1,2-a]pyridine-3-carboxamide] | 0.0035 | 0.0022
CN(C)c1nc2c(-c3cnc(NCc4c(F)ccc5c4CCO5)n4cnnc34)cc(F)cn2n1 [8-(2-(dimethylamino)-6-fluoro-[1,2,4]triazolo[1,5-a]pyridin-8-yl)-N-((5-fluoro-2,3-dihydrobenzofuran-4-yl)methyl)-[1,2,4]triazolo[4,3-c]pyrimidin-5-amine] | 0.0018 | 0.0244
Cc1ccc(-c2cnc(NCc3c(F)ccc4c3CCO4)n3cnnc23)c2nncn12 [N-((5-fluoro-2,3-dihydrobenzofuran-4-yl)methyl)-8-(5-methyl-[1,2,4]triazolo[4,3-a]pyridin-8-yl)-[1,2,4]triazolo[4,3-c]pyrimidin-5-amine] | 0.0002 | 0.0002
CC(C)(O)c1ccc(-c2cnc(NCc3c(F)ccc4c3CCO4)n3cnnc23)c2ncnn12 [2-(8-(5-(((5-fluoro-2,3-dihydrobenzofuran-4-yl)methyl)amino)-[1,2,4]triazolo[4,3-c]pyrimidin-8-yl)-[1,2,4]triazolo[1,5-a]pyridin-5-yl)propan-2-ol] | 0.0004 | 0.0002
NC(=O)c1cnc2c(-c3cnc(NCc4c(F)ccc5c4CCO5)n4cnnc34)cc(F)cn12 [6-fluoro-8-(5-(((5-fluoro-2,3-dihydrobenzofuran-4-yl)methyl)amino)-[1,2,4]triazolo[4,3-c]pyrimidin-8-yl)imidazo[1,2-a]pyridine-3-carboxamide] | 0.0134 | 0.0046
N#Cc1ccc(-c2cnc(NCc3c(F)ccc4c3CCO4)n3cnnc23)c2nccn12 [8-(5-(((5-fluoro-2,3-dihydrobenzofuran-4-yl)methyl)amino)-[1,2,4]triazolo[4,3-c]pyrimidin-8-yl)imidazo[1,2-a]pyridine-5-carbonitrile] | 0.0048 | 0.0036
